Source: patent publication US12116362B2, “Monocyclic compounds useful as GPR120 modulators” (Valo Health, Inc., priority 2016, dated 2024)

Tests used:
[1] = target: T1, human GPR120 (Homo sapiens, UniProt Q5NUL3); assay: GPR120 β-Arrestin Recruitment Assay (PathHunter, CHO-K1 cells); assay type: cell-based; conditions: pEC50=−log(EC50) from curve fit; CHO-K1 cells, 90 min incubation; read-out: β-Arr pEC50 (converted)
T1 construct: host or cells: CHO-K1
Description: This in vitro assay tests compounds' ability to activate intracellular signaling via 3-Arrestin recruitment to heterologously expressed human GPR120. This functional cellular assay utilizes enzyme fragment complementation with β-galactosidlase (β-gal) as a functional reporter (DiscoveRx PathlHunter® β-Arrestin assay platform). The human (GPR120 receptor (GenBank accession Number NM_181745) was fused in frame with the small enzyme fragment ProLink™ and co-expressed in CHO-K1 cells with a fusion protein of β-Arrestin 2 and the larger, N-terminal deletion mutant of β-gal. Activation by a GPR120 agonist stimulates binding of β-arrestin to the ProLink-tagged GPCR and forces complementation of the two enzyme fragments, resulting in the formation of an active β-gal enzyme. This interaction leads to an increase in enzyme activity that can be measured using chemiluminescent PathHunter® Detection Reagents.
One day prior to the assay, cells were seeded in a total volume of 20 μl of growth medium into white walled 384-well microplates and incubated at 37° C./5% CO2 overnight. On the day of the assay, growth medium was removed and 20 μl assay buffer (HBSS+10 mM HEPES+0.1% heat-inactivated BSA) were added to each well.
Test compounds were dissolved in 100% DMSO to a concentration of 10 mM to provide stock solutions. Serial dilutions were performed from stock solutions into assay buffer to obtain intermediate concentrations of 5-fold higher than the concentrations to be tested. 5 μl of the 5× compound solutions were added to the cells and the assay plates were incubated at 37° C. for 90 minutes. The final concentration of compounds tested in the assay ranged from 1.5 nM to 100 μM. Following incubation, 12.5 μl of PathHunter® detection reagent were added to each well, and plates were incubated at room temperature for 60 minutes. Chemiluminescence was read using an EnVision plate reader (PerkinElmer), raw data were expressed as relative light units (RLU).
(§1) To determine agonist potencies (EC50 values), non-linear least-squares curve fits of the raw data (RLU) were performed in the GraphPad Prism software package, using the 4-parameter model with variable Hill Slope:
Reported below in Table 1 are pEC50 values (pEC50=−log(EC50) from curve fit) for compounds of Formula I in this assay, β-Arr pEC50 Alternatively, percent activation at a single concentration is reported.
T1 sequence (Q5NUL3 1-377 isoform Q5NUL3-1): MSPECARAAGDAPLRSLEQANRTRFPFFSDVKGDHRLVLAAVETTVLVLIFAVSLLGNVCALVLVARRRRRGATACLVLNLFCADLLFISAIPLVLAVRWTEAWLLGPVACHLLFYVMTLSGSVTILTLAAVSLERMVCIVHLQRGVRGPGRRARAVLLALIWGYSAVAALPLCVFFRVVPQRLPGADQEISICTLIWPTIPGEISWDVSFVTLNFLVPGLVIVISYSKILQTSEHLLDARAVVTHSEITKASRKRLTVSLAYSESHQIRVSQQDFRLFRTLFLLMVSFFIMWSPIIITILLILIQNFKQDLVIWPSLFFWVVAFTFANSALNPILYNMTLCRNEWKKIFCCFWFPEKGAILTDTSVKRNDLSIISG
T1 sequence (P32121 whole entry partner): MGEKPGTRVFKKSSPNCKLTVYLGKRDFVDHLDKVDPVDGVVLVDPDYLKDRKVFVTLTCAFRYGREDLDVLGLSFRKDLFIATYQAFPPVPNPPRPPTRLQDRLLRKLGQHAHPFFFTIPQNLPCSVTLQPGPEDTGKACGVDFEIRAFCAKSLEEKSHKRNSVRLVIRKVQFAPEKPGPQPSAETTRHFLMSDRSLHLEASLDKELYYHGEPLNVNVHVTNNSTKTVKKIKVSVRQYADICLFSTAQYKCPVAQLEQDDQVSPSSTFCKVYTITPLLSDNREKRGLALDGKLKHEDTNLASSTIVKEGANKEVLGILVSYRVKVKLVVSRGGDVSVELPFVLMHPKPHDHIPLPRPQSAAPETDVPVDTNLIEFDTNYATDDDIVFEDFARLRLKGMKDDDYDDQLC

[2] = target: T2, human GPR120 (Homo sapiens, UniProt Q5NUL3); assay: Human GPR120 Calcium-Release Assay (aequorin luminescence, CHO-K1 cells); assay type: cell-based; conditions: pEC50=−log(EC50) from curve fit; short variant of human GPR120 in CHO-K1 with Gα16 and apoaequorin; read-out: Ca2+ pEC50 (converted)
T2 construct: expressed in transfected cells; host or cells: CHO-K1 coexpressing Gα16 and mitochondrial apoaequorin
T2 sequence (Q5NUL3 1-361): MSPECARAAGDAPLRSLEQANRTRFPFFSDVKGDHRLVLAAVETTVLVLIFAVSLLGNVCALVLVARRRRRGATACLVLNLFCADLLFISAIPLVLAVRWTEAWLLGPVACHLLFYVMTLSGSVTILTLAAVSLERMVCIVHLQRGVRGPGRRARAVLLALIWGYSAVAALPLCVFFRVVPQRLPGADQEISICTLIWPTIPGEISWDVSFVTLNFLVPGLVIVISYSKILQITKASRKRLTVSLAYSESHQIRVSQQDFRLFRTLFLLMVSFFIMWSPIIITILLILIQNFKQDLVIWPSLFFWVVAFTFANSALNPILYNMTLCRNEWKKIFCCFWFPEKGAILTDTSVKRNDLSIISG
Description: This in vitro assay tests compounds' ability to activate heterologously expressed human GPR120 via G-protein coupling leading to generation of inositol 1,4,5-triphosphate and mobilization of intracellular calcium. This functional cellular assay is based on the luminescence of mitochondrial aequorin following intracellular Ca^2+ release. Aequorin is a photoprotein isolated from the jellyfish Aequorea victoria. The active protein is formed in the presence of molecular oxygen from apoaequorin and its cofactor coelenterazine. Binding of Ca^2+ to the active protein induces a conformational change, resulting in oxidation of coelenterazine and subsequent blue luminescence.
The short variant of the human GPR120 receptor (GenBank accession Number AAI01176) was stably expressed in a CHO-K1 cell line coexpressing Gα16 and mitochondrial apoaequorin.
Cells were grown to mid-log phase in culture media without antibiotics, were detached with PBS/EDTA, centrifuged and resuspended in assay buffer (DMEM-F12 medium with 15 mM HEPES pH 7.0 and 0.1% protease free BSA) at a concentration of 10^6 cells/mL. Cells were incubated at room temperature for at least 4 hours with 5 μM coelenterazine h.
Test compounds were dissolved in 100% DMSO to a concentration of 20 mM to provide stock solutions. Serial dilutions were performed from stock solutions in 100% DMSO to obtain intermediate concentrations 200-fold higher than the concentrations to be tested. Each sample was diluted 100-fold into assay buffer. 50 μl of these compound solutions were dispensed into each well of 96-well assay plates. The final concentration of compounds tested in the assay ranged from 5 nM to 100 μM. α-Linolenic acid was used as a reference compound. Each test was performed in duplicate.
To start the assay, 50 μl of cell suspension were added to each well of the assay plate. The resulting luminescence was recorded using a Hamamatsu Functional Drug Screening System 6000 (FDSS 6000), and raw data were expressed as relative light units (RLU).
as §1
Reported below in Table 1 are pEC50 values (pEC50=−log(EC50) from curve fit) for representative compounds of Formula I in this assay, Ca2+pEC50.

| SMILES | EC50 [1] [µM] | EC50 [2] [µM] |
| --- | --- | --- |
| Cc1cc(N2Cc3ccccc3S2(=O)=O)nc(Oc2cccnc2)n1 [Compound 77] | 2.51 | 1 |
| O=S1(=O)c2ccccc2CN1c1cc(C(F)(F)F)nc(Oc2ccccc2)n1 [Compound 98] | 0.794 | 2.51 |
| O=S1(=O)c2ccccc2CN1c1cc(C(F)(F)F)nc(Oc2cccnc2)n1 [Compound 78] | 1.58 | 3.98 |
| O=S1(=O)c2ccccc2CN1c1ccnc(Oc2ccc(Br)cc2)n1 [Compound 41] | 2.51 | 0.794 |
| O=S1(=O)c2ccccc2CN1c1ccnc(Oc2ccc(OCc3ccccc3)cc2)n1 [Compound 45] | 1.58 | > 100 |
| O=S1(=O)c2ccccc2CN1c1nccc(Oc2cccnc2)n1 [Compound 114] | 12.6 | 15.8 |
| Cc1cc(Oc2ccc(Cl)cc2)nc(N2Cc3ccccc3S2(=O)=O)n1 [Compound 87] | 0.794 | 1.58 |
| Cc1ccc(Oc2nccc(N3Cc4ccccc4S3(=O)=O)n2)cc1Cl [Compound 34] | 1.58 | 0.2 |
| O=S1(=O)c2ccccc2CN1c1cc(C(F)(F)F)nc(Oc2ccc(Cl)cc2)n1 [Compound 97] | 0.631 | 1 |
| Cc1cc(Oc2ccc(Cl)cc2)nc(N2Cc3ccccc3S2(=O)=O)c1 [Compound 131] | 0.158 | 0.316 |
| CCOc1nccc(N2Cc3ccccc3S2(=O)=O)n1 [Compound 67] | > 10 | 6.31 |
| O=S1(=O)c2ccccc2CN1c1ccnc(Oc2ccc(F)cc2)n1 [Compound 42] | 1 | 0.316 |
